The structures appear in SMILES notation.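 96-well plates; 48 h exposure; 5 concentrations. Endpoints by linear interpolation between flanking doses. Not reached: highest tested concentration assigned. TGI denotes the concentration required for complete inhibition of growth.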

In one test the test system is A549 NSCLC. The test is described as follows: NCI tumour cell line growth inhibition, 48 h.
`COc1cc([C@@H]2OCC3C(c4ccc5c(c4)OCO5)OCC32)cc(OC)c1OC` (some centres undefined) yielded a TGI of more than 100 µM.

In turn, `O=C1CCC23CC(C=CC=C12)n1c(=O)n(-c2ccccc2)c(=O)n13` (centres undefined) returned a TGI of more than 100 µM.

`C[C@]12CC[C@H](O)CC1=CC[C@@H]1C2CC[C@]2(C)C(=O)N(N)C(=O)CC12` (some centres undefined) showed a TGI of more than 100 µM.

`CC1(C)N=C(/C(Cl)=[N+](/[O-])C(=O)c2ccc(F)cc2)C(C)(C)N1O` registered a TGI of more than 100 µM.

Compound `N#CN=C(N(Cc1ccccc1)Cc1ccccc1)N(Cc1ccccc1)Cc1ccccc1` returned a TGI of more than 100 µM.

`[N-]=[N+]=Nc1cc(=O)oc2ccccc12`: the TGI was more than 100 µM.

`CCOC(=O)N1CCC2(CC1)C[C@](C)(C(C)=O)C(C)O2` (some centres undefined) yielded a TGI of more than 100 µM.

With `CNC(=O)C(C)C1CCC2(C)C=CC(=O)C(C)=C2C1O` (centres undefined), the TGI is more than 90.2 µM.

`Cc1ccc(SCC(CSCCO)OCn2cnc3c2NC(N)=NC32OCCO2)cc1` (centres undefined): the TGI was more than 100 µM.

Compound `Cc1cccc2c(=O)cc(-c3ccccc3)[nH]c12` came in with a TGI of more than 100 µM.

`COc1cc([C@@H]2c3cc4c(cc3[C@@H](Nc3ccc([N+](=O)[O-])cc3C(=O)c3ccccc3)[C@H]3COC(=O)[C@H]23)OCO4)cc(OC)c1OC`: the TGI was more than 100 µM.

`CCN(CC)CCC(=O)Nc1ccc2c(c1)C(=O)c1ccc(NC(=O)CCN(CC)CC)cc1C2=O` had a TGI of 20.6 µM.

`CC(C)CCCCCCCCCCCCC(=O)NCC(=O)NC1C(C)OC(Nc2ncnc3c2ncn3C)C(O)C1O` (centres undefined) gave a TGI of more than 100 µM.

In the case of `CCCCCCCCCCCOc1ccc(C(=O)C(=O)c2ccc(OCCCCCCCCCCC)c(OCCCCCCCCCCC)c2)cc1OCCCCCCCCCCC`, the TGI was more than 100 µM.

Compound `CC(N)Cc1ccc(C(=O)Cl)cc1` (centres undefined) returned a TGI of more than 100 µM.

As for `CCC1(O)CC2CC(=O)OC2C1O` (centres undefined), the TGI was more than 100 µM.

As for `Cc1cn(C2CC(N(O)C(N)=O)C(CO)O2)c(=O)[nH]c1=O` (centres undefined), the TGI is more than 100 µM.

In turn, `O=[N+]([O-])/C(C(Cl)=C(Cl)Cl)=C(\SCc1ccccc1)N1CCCCC1` returned a TGI of more than 100 µM.

Consider `COc1nc(N)c(C(=O)CCl)c(=O)n1C`, for which the TGI worked out at 51.6 µM.

`CC1C=C(CCCCCCCCCCCC[C@@H](O)[C@@H]2CC[C@@H]([C@@H]3CC[C@@H](C(O)CCCCCCCCCCCCC4=C[C@H](C)OC4=O)O3)O2)C(=O)O1` (some centres undefined) displayed a TGI of more than 100 µM.

`O=C1c2ccccc2C2C1N2C(=O)C(F)(F)F` (centres undefined) came in with a TGI of more than 100 µM.

Compound `O=C(Cc1cccs1)N[C@@H]1C(=O)N2C(C(=O)OC(c3ccccc3)c3ccccc3)=C(CO)CS[C@H]12` displayed a TGI of more than 100 µM.

`COc1ccc2c(=O)c(O)c(-c3ccc(OC)c(OC)c3)oc2c1` returned a TGI of more than 100 µM.

Take `CC(=O)NNc1nc(C)c(C(=O)NNC(=O)C(=O)Nc2c(Cl)cc([N+](=O)[O-])cc2Cl)s1`: the TGI was more than 100 µM.

Consider `N.N.N.N.O=[N+]([O-])[O-].[Co+3].[N-]=[N+]=[N-].[N-]=[N+]=[N-]`, for which the TGI was more than 100 µM.

For the next test, the system named is ACHN renal. The test is described as follows: NCI tumour cell line growth inhibition, 48 h.
For the compound `COc1cc([C@@H]2OCC3C(c4ccc5c(c4)OCO5)OCC32)cc(OC)c1OC` (some centres undefined), the TGI was more than 100 µM.

Take `C[C@]12CC[C@H](O)CC1=CC[C@@H]1C2CC[C@]2(C)C(=O)N(N)C(=O)CC12` (some centres undefined): the TGI was more than 100 µM.

As for `O=C(O)c1cccc2c1/C(=N/Nc1ccccc1)CC2`, the TGI was more than 100 µM.

In turn, `CC1(C)N=C(/C(Cl)=[N+](/[O-])C(=O)c2ccc(F)cc2)C(C)(C)N1O` gave a TGI of 36.5 µM.

Turning to `N#CN=C(N(Cc1ccccc1)Cc1ccccc1)N(Cc1ccccc1)Cc1ccccc1`, the TGI was more than 100 µM.

Consider `[N-]=[N+]=Nc1cc(=O)oc2ccccc12`, for which the TGI is more than 100 µM.

As to `CCOC(=O)N1CCC2(CC1)C[C@](C)(C(C)=O)C(C)O2` (some centres undefined), the TGI is more than 100 µM.

`Cc1ccc(SCC(CSCCO)OCn2cnc3c2NC(N)=NC32OCCO2)cc1` (centres undefined) came in with a TGI of more than 100 µM.

For the compound `Cc1cccc2c(=O)cc(-c3ccccc3)[nH]c12`, the TGI is more than 100 µM.

`COc1cc([C@@H]2c3cc4c(cc3[C@@H](Nc3ccc([N+](=O)[O-])cc3C(=O)c3ccccc3)[C@H]3COC(=O)[C@H]23)OCO4)cc(OC)c1OC` had a TGI of more than 100 µM.

Consider `CCN(CC)CCC(=O)Nc1ccc2c(c1)C(=O)c1ccc(NC(=O)CCN(CC)CC)cc1C2=O`, for which the TGI is 16.3 µM.

`CCCCCCCCCCCOc1ccc(C(=O)C(=O)c2ccc(OCCCCCCCCCCC)c(OCCCCCCCCCCC)c2)cc1OCCCCCCCCCCC` gave a TGI of more than 100 µM.

Turning to `CC(N)Cc1ccc(C(=O)Cl)cc1` (centres undefined), the TGI was more than 100 µM.

On to `CCC1(O)CC2CC(=O)OC2C1O` (centres undefined), for which the TGI is more than 100 µM.

Consider `Cc1cn(C2CC(N(O)C(N)=O)C(CO)O2)c(=O)[nH]c1=O` (centres undefined), for which the TGI is more than 100 µM.

With `O=[N+]([O-])/C(C(Cl)=C(Cl)Cl)=C(\SCc1ccccc1)N1CCCCC1`, the TGI came to 37.6 µM.

For `COc1nc(N)c(C(=O)CCl)c(=O)n1C`, the TGI turned out to be 48.5 µM.

`CC1C=C(CCCCCCCCCCCC[C@@H](O)[C@@H]2CC[C@@H]([C@@H]3CC[C@@H](C(O)CCCCCCCCCCCCC4=C[C@H](C)OC4=O)O3)O2)C(=O)O1` (some centres undefined) showed a TGI of more than 100 µM.

`O=C1c2ccccc2C2C1N2C(=O)C(F)(F)F` (centres undefined) displayed a TGI of more than 100 µM.

`O=C(Cc1cccs1)N[C@@H]1C(=O)N2C(C(=O)OC(c3ccccc3)c3ccccc3)=C(CO)CS[C@H]12` had a TGI of more than 100 µM.

In turn, `COc1ccc2c(=O)c(O)c(-c3ccc(OC)c(OC)c3)oc2c1` registered a TGI of more than 100 µM.

The compound `CC(=O)NNc1nc(C)c(C(=O)NNC(=O)C(=O)Nc2c(Cl)cc([N+](=O)[O-])cc2Cl)s1` displayed a TGI of more than 100 µM.

`N.N.N.N.O=[N+]([O-])[O-].[Co+3].[N-]=[N+]=[N-].[N-]=[N+]=[N-]`: the TGI was more than 100 µM.

A further test concerns HCT-15 colon. The test is described as follows: NCI tumour cell line growth inhibition, 48 h.
Take `COc1cc([C@@H]2OCC3C(c4ccc5c(c4)OCO5)OCC32)cc(OC)c1OC` (some centres undefined): the TGI is more than 100 µM.

For the compound `O=C1CCC23CC(C=CC=C12)n1c(=O)n(-c2ccccc2)c(=O)n13` (centres undefined), the TGI is more than 100 µM.

Take `C[C@]12CC[C@H](O)CC1=CC[C@@H]1C2CC[C@]2(C)C(=O)N(N)C(=O)CC12` (some centres undefined): the TGI is more than 100 µM.

`O=C(O)c1cccc2c1/C(=N/Nc1ccccc1)CC2` displayed a TGI of more than 100 µM.

As to `CC1(C)N=C(/C(Cl)=[N+](/[O-])C(=O)c2ccc(F)cc2)C(C)(C)N1O`, the TGI amounted to 26.9 µM.

Take `N#CN=C(N(Cc1ccccc1)Cc1ccccc1)N(Cc1ccccc1)Cc1ccccc1`: the TGI was more than 100 µM.

`[N-]=[N+]=Nc1cc(=O)oc2ccccc12` returned a TGI of more than 100 µM.

For `CCOC(=O)N1CCC2(CC1)C[C@](C)(C(C)=O)C(C)O2` (some centres undefined), the TGI was more than 100 µM.

The compound `CNC(=O)C(C)C1CCC2(C)C=CC(=O)C(C)=C2C1O` (centres undefined) gave a TGI of more than 100 µM.

On to `Cc1ccc(SCC(CSCCO)OCn2cnc3c2NC(N)=NC32OCCO2)cc1` (centres undefined), for which the TGI is more than 100 µM.

Compound `Cc1cccc2c(=O)cc(-c3ccccc3)[nH]c12` had a TGI of more than 100 µM.

Take `CCN(CC)CCC(=O)Nc1ccc2c(c1)C(=O)c1ccc(NC(=O)CCN(CC)CC)cc1C2=O`: the TGI worked out at 14.8 µM.

`CC(C)CCCCCCCCCCCCC(=O)NCC(=O)NC1C(C)OC(Nc2ncnc3c2ncn3C)C(O)C1O` (centres undefined) gave a TGI of more than 100 µM.

`CCCCCCCCCCCOc1ccc(C(=O)C(=O)c2ccc(OCCCCCCCCCCC)c(OCCCCCCCCCCC)c2)cc1OCCCCCCCCCCC` gave a TGI of more than 100 µM.

On to `CC(N)Cc1ccc(C(=O)Cl)cc1` (centres undefined), for which the TGI is more than 100 µM.

Regarding `CCC1(O)CC2CC(=O)OC2C1O` (centres undefined), the TGI is more than 100 µM.

For the origin of these results see PubChem BioAssay (NCI).
